These are literature values, as cited in US7473685B2, “Process for preparation of chemically stable, dry-flow, low compact, dust free, soluble granules of phosphoroamidothioates” (United Phosphorus, Ltd., priority 2001, dated 2009).

This series has as its system aphids, leaf-miners, lepidopterous, larvae, sawflies and thrips. The following applies: systemic and contact insecticide of moderate persistence.

As to `COP(=O)(NC(C)=O)SC` (stereo not shown) [Acephate], the residual activity lasting is 10 to 15 days.
